This note sets out measurements from BindingDB's records for patent US20250221987 (Acerand Therapeutics (Hong Kong), 2025).

The target in test [1] is Poly [ADP-ribose] polymerase 1 (Homo sapiens, UniProt P09874). As to the kind of experiment: PARP1 Enzymatic Activity Assay. The method, then:
2) After the coating was completed, the coating buffer was discarded. […] After washing, the blocking buffer was discarded. […] 4) 1000× compound was prepared. 1 μL of compound was transferred to a 96-well plate containing 199 μL of reaction buffer (50 mM Tris-HCl (pH 7.5), 0.005% Tween-20, 0.01% BSA) and mixed well. […] 5) 25/10×PARP1-DNA solution was prepared with reaction buffer. […] 6) 25/10×NAD+ solution was prepared with reaction buffer. […] 8) Primary antibody was 2000-fold diluted with the blocking buffer. 20 μL of primary antibody was added to the reaction plate, which was incubated at room temperature for 1.5 hours. 9) The primary antibody was discarded. […] 10) Secondary antibody was 2000-fold diluted with the blocking buffer. […] 11) The secondary antibody was discarded. […] The chemiluminescence value RLU was read with Envision.

In test [2] the target is Poly [ADP-ribose] polymerase 2 (Homo sapiens, UniProt Q9UGN5). As to the kind of experiment: PARP2 Enzymatic Activity Assay. The method, then:
2) After the coating was completed, the coating buffer was discarded. […] 6) 2000× compound was prepared. […] 10) The Stre-HRP solution was discarded.

Poly [ADP-ribose] polymerase 2, sequence (Q9UGN5 whole entry): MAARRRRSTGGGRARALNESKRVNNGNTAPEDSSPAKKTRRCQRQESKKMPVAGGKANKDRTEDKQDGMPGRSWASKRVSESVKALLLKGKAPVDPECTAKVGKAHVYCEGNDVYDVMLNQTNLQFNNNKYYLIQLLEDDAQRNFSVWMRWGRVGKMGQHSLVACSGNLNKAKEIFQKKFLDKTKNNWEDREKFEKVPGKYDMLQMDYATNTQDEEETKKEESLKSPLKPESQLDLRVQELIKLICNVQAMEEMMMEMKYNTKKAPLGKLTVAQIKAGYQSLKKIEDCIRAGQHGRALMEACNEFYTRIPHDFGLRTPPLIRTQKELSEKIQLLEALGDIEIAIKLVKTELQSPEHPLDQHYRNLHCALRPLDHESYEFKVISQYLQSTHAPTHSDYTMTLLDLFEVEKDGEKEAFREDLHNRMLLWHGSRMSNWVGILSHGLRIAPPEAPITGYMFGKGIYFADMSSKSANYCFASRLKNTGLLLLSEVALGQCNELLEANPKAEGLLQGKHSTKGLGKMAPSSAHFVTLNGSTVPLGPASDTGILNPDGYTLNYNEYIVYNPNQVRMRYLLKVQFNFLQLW
Poly [ADP-ribose] polymerase 1, sequence (P09874 whole entry): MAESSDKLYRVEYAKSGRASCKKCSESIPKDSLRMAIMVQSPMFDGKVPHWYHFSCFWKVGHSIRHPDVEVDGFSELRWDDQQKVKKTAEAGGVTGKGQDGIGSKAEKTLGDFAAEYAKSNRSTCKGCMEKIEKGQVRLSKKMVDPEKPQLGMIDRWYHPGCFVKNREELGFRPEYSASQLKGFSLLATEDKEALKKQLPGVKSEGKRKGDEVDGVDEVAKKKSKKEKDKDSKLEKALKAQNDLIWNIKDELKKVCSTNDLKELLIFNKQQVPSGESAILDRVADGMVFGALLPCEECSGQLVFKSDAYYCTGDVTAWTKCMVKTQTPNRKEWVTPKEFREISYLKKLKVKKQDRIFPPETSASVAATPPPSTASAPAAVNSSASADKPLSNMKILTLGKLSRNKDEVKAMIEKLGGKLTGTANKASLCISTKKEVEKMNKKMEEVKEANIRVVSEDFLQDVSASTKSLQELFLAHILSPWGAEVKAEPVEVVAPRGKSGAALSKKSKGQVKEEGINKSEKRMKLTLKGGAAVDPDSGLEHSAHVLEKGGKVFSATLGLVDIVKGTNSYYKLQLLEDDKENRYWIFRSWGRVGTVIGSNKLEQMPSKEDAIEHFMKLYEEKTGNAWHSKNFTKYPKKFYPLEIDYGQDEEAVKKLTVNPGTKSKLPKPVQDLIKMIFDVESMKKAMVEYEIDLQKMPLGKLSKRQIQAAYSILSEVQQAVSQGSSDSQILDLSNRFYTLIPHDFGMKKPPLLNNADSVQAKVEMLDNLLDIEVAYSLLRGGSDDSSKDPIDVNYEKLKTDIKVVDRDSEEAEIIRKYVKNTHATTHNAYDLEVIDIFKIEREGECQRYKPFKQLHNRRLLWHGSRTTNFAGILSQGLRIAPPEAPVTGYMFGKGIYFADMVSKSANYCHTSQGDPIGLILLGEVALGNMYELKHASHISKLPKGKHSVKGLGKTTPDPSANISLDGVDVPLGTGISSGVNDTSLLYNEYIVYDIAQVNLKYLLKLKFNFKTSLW

For the compound `CCc1cc2ncc(CN3CCN(c4ccc(C(=O)NC)nc4)[C@H]4CC[C@@H]43)cc2[nH]c1=O` [US20250221987, Example 2-4], the results for the IC50 in test [1] and in test [2] were 1 nM and 40 nM, respectively.

On to `CNC(=O)c1ccc(N2CCN(Cc3cnc4cc(OC)c(=O)[nH]c4c3)[C@H]3CC[C@H]32)cn1` [US20250221987, Example 33-1], for which the IC50 (as a rule, the concentration that gives 50% inhibition) in test [1] was 6.6 nM; in test [2] it was greater than 300 nM.

Consider `CCc1cc2ncc(CN3CCN(c4ccc(C(=O)NC)nc4)[C@@H]4C[C@@H]43)cc2[nH]c1=O` [US20250221987, Example 1-2], for which the IC50 in test [1] turned out to be 0.7 nM. This lies in the sub-nanomolar range. As for `CCc1cc2ncc(CN3CCN(c4ccc(C(=O)NC)nc4)C4CCC43)cc2[nH]c1=O` (stereo unspecified) [US20250221987, Example 2], the values for the 50% inhibitory concentration (IC50) in test [1] and in test [2] were 0.9 nM and 14 nM, respectively. For the compound `CCc1cc2ncc(CN3CCN(c4ccc(C(=O)NC)nc4)[C@H]4C[C@H]43)cc2[nH]c1=O` [US20250221987, Example 1-1], in test [1], it took 0.9 nM to reach half-maximal inhibition (IC50). Same read-out and setting: in the case of `CCc1cc2ncc(CN3CCN(c4ccc(C(=O)NC)nc4)C4CC43)cc2[nH]c1=O` (stereo unspecified) [US20250221987, Example 1] it was 1.1 nM. Regarding `CCc1cc2ncc(CN3CCN(c4ccc(C(=O)NC)nc4)[C@@H]4CC[C@H]43)cc2[nH]c1=O` [US20250221987, Example 2-3], the IC50 was found to be 1.5 nM in test [1] and 72 nM in test [2].
